Eight molecules from US11566007B2, “Ras inhibitors” (Revolution Medicines, Inc., priority 2019, dated 2023) can be followed below.

Where “and” joins values, the source holds several entries; their conditions need not be identical. Identical values can stand only once.

In experiment [1] the test system is NCI-H358 cells (K-Ras G12C). Put plainly: Potency assay: pERK in NCI-H358 cells. In kind it is cell-based, human. The settings on record: Homo sapiens, NCI-H358; H358 KRAS G12C; read-out: pERK EC50. An outline of the steps: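 Compounds are dosed as ten 3-fold dilutions from a 10 mM DMSO stock, in duplicate, and left on cells for 4 h at 37 °C, 5% CO2. Phospho-ERK1/2 is then quantified by AlphaLISA SureFire Ultra or In-Cell Western, and IC50 is derived from a 4-parameter sigmoid against log concentration.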

The next experiment addresses K-Ras G13C (Homo sapiens (Human), UniProt P01116+P62937, G13C). The experiment is described as follows: Ras-Raf (BRAF RBD) disruption / FRET / MOA assay, KRAS G13C. Type of experiment: biochemical. Conditions: KRAS G13C; Ras-Raf disruption/FRET/MOA assay; read-out: IC50* KRAS G13C FRET data. The protocol:
(§1) The purpose of this biochemical assay is to measure the ability of test compounds to facilitate ternary complex formation between a nucleotide-loaded Ras isoform and cyclophilin A; the resulting ternary complex disrupts binding to a BRAF^RBD construct, inhibiting Ras signaling through a RAF effector.
(§2) Compound is present in plate wells as a 10-point 3-fold dilution series starting at a final concentration of 30 μM. After incubation at 25° C. for 3 hours, a mixture of Anti-His Eu-W1024 and anti-GST allophycocyanin is then added to assay sample wells at final concentrations of 10 nM and 50 nM, respectively, and the reaction incubated for an additional 1.5 hours. […] Compounds that facilitate disruption of a Ras:RAF complex are identified as those eliciting a decrease in the TR-FRET ratio relative to DMSO control wells.
(§3) This protocol may also be executed substituting other Ras proteins or nucleotides.
(§4) The purpose of this biochemical assay was to measure the ability of test compounds to facilitate ternary complex formation between a nucleotide-loaded K-Ras isoform and Cyclophilin A; the resulting ternary complex disrupts binding to a BRAF^RBD construct, inhibiting K-Ras signaling through a RAF effector. Data is reported as IC50 values.
(§5) Compound was present in plate wells as a 10-point 3-fold dilution series starting at a final concentration of 30 μM. After incubation at 25° C. for 3 hours, a mixture of Anti-His Eu-W1024 and anti-GST allophycocyanin was then added to assay sample wells at final concentrations of 10 nM and 50 nM, respectively, and the reaction incubated for an additional 1.5 hours. […] Compounds that facilitate disruption of a K-Ras:RAF complex were identified as those eliciting a decrease in the TR-FRET ratio relative to DMSO control wells.

Another experiment addresses KRAS WT (Homo sapiens (Human), UniProt P01116+P62937). Put plainly: Ras-Raf (BRAF RBD) disruption / FRET / MOA assay, KRAS WT. Type of experiment: biochemical. Conditions: read-out: IC50* KRAS WT FRET data. The protocol:
as §1, §2, §3, §4, §5

In the next experiment the target is KRAS G12S (Homo sapiens (Human), UniProt P01116+P62937, G12S). Put plainly: Ras-Raf (BRAF RBD) disruption / FRET / MOA assay, KRAS G12S. In kind it is biochemical. Conditions: Ras-Raf disruption/FRET/MOA assay; class symbols; read-out: KRAS G12S FRET data IC50. An outline of the steps:
(§6)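 Ternary complex formation (Ras–compound–cyclophilin A) displacing BRAF RBD, monitored by TR-FRET. Three hours at 25° C with compound (top 30 μM final), then 1.5 h with the labelled antibodies. Lower ratio than DMSO indicates disruption; IC50 reported.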

A further experiment concerns the target K-Ras G12C (Homo sapiens (Human), UniProt P01116+P62937, G12C). The experiment is described as follows: Ras-Raf (BRAF RBD) disruption / FRET / MOA assay, KRAS G12C. Type of experiment: biochemical. The settings on record: KRAS G12C; Ras-Raf disruption/FRET/MOA assay; read-out: IC50* KRAS G12C FRET data. The protocol: as §1, §2, §3, §4, §5
A further experiment deals with NCI-H358 (K-Ras G12C). Put plainly: CellTiter-Glo cell viability assay, NCI-H358. Conditions: Homo sapiens, NCI-H358, 120 h, NCI-H358, 5-day treatment; class symbols; read-out: Additional H358 Cell Viability assay data (K-Ras G12C, IC50). In kind it is cell-based, human. In short, it runs like this:
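Luminescent viability readout on day 5 after direct compound addition to plated cells; plates sat ~30 min at room temperature before reading. Values expressed as percent of mean DMSO signal, curves fit with a four-parameter logistic model.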
On the technique in general: ATP-based viability assays read luminescence as a measure of living cells.

The target of the next experiment is KRAS G12D (Homo sapiens (Human), UniProt P01116+P62937, G12D). The experiment is described as follows: Ras-Raf (BRAF RBD) disruption / FRET / MOA assay, KRAS G12D. In kind it is biochemical. Conditions: Ras-Raf disruption/FRET/MOA assay; class symbols; read-out: KRAS G12D FRET data IC50. An outline of the steps:
as §6

For a further experiment, the target named is KRAS G12V (Homo sapiens (Human), UniProt P01116+P62937, G12V). The experiment is described as follows: Ras-Raf (BRAF RBD) disruption / FRET / MOA assay, KRAS G12V. In kind it is biochemical. The settings on record: read-out: IC50* KRAS G12V FRET data. The protocol:
as §1, §2, §3, §4, §5

KRAS G12V, sequence (P01116-2 other isoform, or with tags, fused parts or gaps G12V): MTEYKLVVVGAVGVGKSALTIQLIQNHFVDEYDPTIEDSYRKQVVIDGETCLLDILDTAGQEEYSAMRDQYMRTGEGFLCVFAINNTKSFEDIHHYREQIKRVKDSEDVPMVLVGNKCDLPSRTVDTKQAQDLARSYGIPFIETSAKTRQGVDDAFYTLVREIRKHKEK
KRAS G12V, sequence (P62937 whole entry): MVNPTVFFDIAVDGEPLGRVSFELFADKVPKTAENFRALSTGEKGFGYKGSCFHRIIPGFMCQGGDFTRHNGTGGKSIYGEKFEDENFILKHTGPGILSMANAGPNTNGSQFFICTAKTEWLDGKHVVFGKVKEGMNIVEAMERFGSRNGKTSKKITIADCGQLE
KRAS WT, sequence (P01116-2 other isoform, or with tags, fused parts or gaps): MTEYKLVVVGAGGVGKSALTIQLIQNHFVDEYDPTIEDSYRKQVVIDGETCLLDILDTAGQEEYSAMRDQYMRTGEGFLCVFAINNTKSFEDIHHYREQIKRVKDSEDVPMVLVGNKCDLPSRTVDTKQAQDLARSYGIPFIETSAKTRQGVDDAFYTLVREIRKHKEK
KRAS WT, sequence (P62937 whole entry): as the sequence (P62937 whole entry) above
KRAS G12D, sequence (P01116-2 other isoform, or with tags, fused parts or gaps G12D): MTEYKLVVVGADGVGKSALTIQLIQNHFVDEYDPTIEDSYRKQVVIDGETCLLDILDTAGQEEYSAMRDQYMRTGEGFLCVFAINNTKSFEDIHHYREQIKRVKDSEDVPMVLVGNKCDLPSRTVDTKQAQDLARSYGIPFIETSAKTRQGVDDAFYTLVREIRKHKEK
KRAS G12D, sequence (P62937 whole entry): as the sequence (P62937 whole entry) above
K-Ras G12C, sequence (P01116-2 other isoform, or with tags, fused parts or gaps G12C): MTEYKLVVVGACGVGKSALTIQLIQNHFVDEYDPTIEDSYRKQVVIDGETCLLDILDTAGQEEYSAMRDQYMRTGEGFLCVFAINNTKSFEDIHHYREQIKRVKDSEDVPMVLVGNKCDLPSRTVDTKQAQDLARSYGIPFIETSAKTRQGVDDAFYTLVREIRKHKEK
K-Ras G12C, sequence (P62937 whole entry): as the sequence (P62937 whole entry) above
K-Ras G13C, sequence (P01116-2 other isoform, or with tags, fused parts or gaps G13C): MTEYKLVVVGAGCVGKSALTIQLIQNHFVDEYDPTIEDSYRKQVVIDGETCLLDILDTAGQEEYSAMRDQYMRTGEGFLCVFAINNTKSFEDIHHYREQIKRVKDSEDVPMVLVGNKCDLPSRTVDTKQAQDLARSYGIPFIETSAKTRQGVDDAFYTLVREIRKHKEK
K-Ras G13C, sequence (P62937 whole entry, canonical isoform): as the sequence (P62937 whole entry) above
KRAS G12S, sequence (P01116-2 other isoform, or with tags, fused parts or gaps G12S): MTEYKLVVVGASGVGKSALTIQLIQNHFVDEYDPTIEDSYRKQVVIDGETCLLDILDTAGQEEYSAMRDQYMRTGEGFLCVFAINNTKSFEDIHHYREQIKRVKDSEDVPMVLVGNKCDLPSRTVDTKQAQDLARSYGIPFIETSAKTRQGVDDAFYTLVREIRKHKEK
KRAS G12S, sequence (P62937 whole entry): as the sequence (P62937 whole entry) above

Turning to `CCn1c(-c2ccccc2CCOC)c2c3cc(ccc31)-c1cc(O)cc(c1)C[C@H](NC(=O)[C@H](C(C)C)N(C)C(=O)c1ccc(N(C)C(=O)/C=C/CN(C)C)cc1)C(=O)N1CCC[C@H](N1)C(=O)OCC(C)(C)C2` [Example A220], the EC50 – broadly, the concentration that produces a half-maximal response – in experiment [1] is under 5 µM. In addition, the IC50 (commonly the point on the concentration scale where inhibition reaches its midpoint) is 0.1 to 1 µM on K-Ras G13C; over 10 µM on KRAS WT; over 10 µM on KRAS G12S; 0.1 to 1 µM and 1 to 10 µM on K-Ras G12C; over 1 µM with NCI-H358 (K-Ras G12C); 1 to 10 µM and > 10 µM on KRAS G12D. The IC50 at KRAS G12V is over 10 µM.

Turning to `C=CC(=O)N1CCC2(CC1)CCN([C@H](C(=O)N[C@H]1Cc3cc(O)cc(c3)-c3ccc4c(c3)c(c(-c3ccccc3CCOC)n4CC)CC(C)(C)COC(=O)[C@@H]3CCCN(N3)C1=O)C(C)C)C2=O` [Example A222], the EC50 in experiment [1] was under 5 µM. Further, the IC50 was 0.1 to 1 µM and > 10 µM at K-Ras G13C; 1 to 10 µM and > 10 µM at KRAS WT; over 10 µM on KRAS G12S; 0.1 to 1 µM and 1 to 10 µM at K-Ras G12C; over 10 µM at KRAS G12D; over 10 µM on KRAS G12V.

As for `CC#CC(=O)N1CC[C@H](C(=O)N(C)[C@H](C(=O)N[C@H]2Cc3cc(O)cc(c3)-c3ccc4c(c3)c(c(-c3ccccc3CCOC)n4CC)CC(C)(C)COC(=O)[C@@H]3CCCN(N3)C2=O)C(C)C)C1` [Example A221], the EC50 in experiment [1] is under 5 µM. Also, the IC50 on K-Ras G13C was > 10 µM and 1 to 10 µM; at KRAS WT it was over 10 µM; on KRAS G12S, 1 to 10 µM and > 10 µM; on K-Ras G12C, 0.1 to 1 µM and > 10 µM; on KRAS G12D, over 10 µM; on KRAS G12V it was 1 to 10 µM and > 10 µM.

`C=CC(=O)N1CC[C@H](C(=O)N(C)[C@H](C(=O)N[C@H]2Cc3cc(O)cc(c3)-c3ccc4c(c3)c(c(-c3ccccc3CCOC)n4CC)CC(C)(C)COC(=O)[C@]3(C)CCCN(N3)C2=O)C(C)C)C1` [Example A219]: in experiment [1], the EC50 is under 5 µM. For the same molecule, the IC50 at K-Ras G13C is over 10 µM; on KRAS WT it was over 10 µM; at KRAS G12S, over 10 µM; at K-Ras G12C, 1 µM to 10 µM (2×) and > 10 µM (2×); with NCI-H358 (K-Ras G12C), 0.1 to 1 µM; at KRAS G12D it was over 10 µM. Moreover, the half-maximal inhibitory concentration (IC50) at KRAS G12V was over 10 µM.

Consider `C=CC(=O)N1CC[C@H](C(=O)N(C)[C@H](C(=O)N[C@H]2Cc3cc(O)cc(c3)-c3ccc4c(c3)c(c(-c3ccccc3CCOC)n4CC)C[C@H](C)COC(=O)[C@@H]3CCCN(N3)C2=O)C(C)C)C1` [Example A215], for which the EC50 in experiment [1] was under 5 µM. The IC50 on K-Ras G13C is over 10 µM; on KRAS WT it was over 10 µM; on KRAS G12S, 1 to 10 µM and > 10 µM; at K-Ras G12C, 0.1 to 1 µM and > 10 µM; on KRAS G12D, over 10 µM; at KRAS G12V, 1 to 10 µM and > 10 µM.

Regarding `C=CC(=O)N1CC[C@H](C(=O)N(C)[C@H](C(=O)N[C@H]2Cc3cc(O)cc(c3)-c3ccc4c(c3)c(c(-c3ccc(OCC(=O)O)cc3)n4CC)CC(C)(C)COC(=O)[C@@H]3CCCN(N3)C2=O)C(C)C)C1` [Example A223], the IC50 at K-Ras G13C is over 10 µM; at KRAS WT it was over 10 µM; on KRAS G12S, 1 to 10 µM and > 10 µM; on K-Ras G12C, 0.1 to 1 µM and > 10 µM; in the experiment on NCI-H358 (K-Ras G12C), over 1 µM; on KRAS G12D, over 10 µM. For the same molecule, on KRAS G12V, the IC50 is 1 to 10 µM and > 10 µM.

In the case of `CCn1c(-c2cccnc2COC)c2c3cc(ccc31)-c1cc(O)cc(c1)C[C@H](NC(=O)[C@H](C(C)C)N(C)C(=O)C1CN(C(=O)/C=C/CN(C)C)C1)C(=O)N1CCC[C@H](N1)C(=O)OCC(C)(C)C2` [Example A071], the IC50 on K-Ras G13C is 0.01 to 0.1 µM; at KRAS WT it was 1 to 10 µM; on KRAS G12S, 1 to 10 µM; on K-Ras G12C, 0.01 to 0.1 µM; on KRAS G12D, 1 to 10 µM; at KRAS G12V it was 1 to 10 µM.

Turning to `C=CC(=O)N1CC[C@]2(CCCN([C@H](C(=O)N[C@H]3Cc4cc(O)cc(c4)-c4ccc5c(c4)c(c(-c4ccccc4CCOC)n5CC)CC(C)(C)COC(=O)[C@@H]4CCCN(N4)C3=O)C(C)C)C2=O)C1` [Example A217], the EC50 in experiment [1] is under 5 µM. Further, the IC50 is 1 to 10 µM and > 10 µM on K-Ras G13C; 1 to 10 µM and > 10 µM on KRAS WT; 1 to 10 µM and > 10 µM at KRAS G12S; 0.1 to 1 µM and > 10 µM on K-Ras G12C; over 10 µM on KRAS G12D; 1 to 10 µM and > 10 µM on KRAS G12V.
